In US11021469B2, “Indoline sulfonamide inhibitors of DapE and NDM-1 and use of the same” (priority 2014, dated 2021):

molecular target: NDM-1 (Klebsiella pneumoniae, UniProt C7C422); assay: Inhibition of NDM-1 assay (CHROMACEF hydrolysis); assay type: biochemical; conditions: pH 7, read-out: % NMD-1 Inhibition (5 μM)
Experimental: The ability of the compounds described herein to inhibit NDM-1 was determined in the following way.
A Substrate Working Solution was prepared from CRHROMACEF (6 μM) and Tween-20 (0.02% v/v) in water. An Enzyme Working Solution was prepared with NDM-1 (0.5 μg/mL), Hepes (0.1 M), pH 7 and Tween-20 (0.02% v/v). An Inhibitor Working Solution was prepared from 50 mM of the inhibitor in DMSO. The final assay conditions were 1 mL, Hepes (50 mM), pH 7, Tween-20 (0.02% v/v), CHROMACEF (3 uM), Δ35 NDM-1 (0.25 μg/mL). Extra zinc was omitted from these assays because extra ZnSO4 interferes with the metal binding groups in inhibitors.
An aliquot of the Inhibitor Working Solution was added to a polystyrene disposable cuvette to achieve a final concentration of 0-50 μM (in 1 mL final). Supplemental DMSO was added to reach a final volume of 4 μL. NDM-1 Working Solution (0.05 mL) was added to the cuvette and the inhibitor and enzyme were allowed to incubate for about 20 minutes. The reaction was initiated by added 0.5 mL Substrate Working Solution. The solution was mixed quickly, but gently to avoid bubble formation. CHROMACEF […] was recorded to start the reaction. The reaction was mixed fast, but gently. The change in absorbance ΔAbs442nm/min was measured for each inhibitor from the linear slope from each inhibitor concentration.

NDM-1, sequence (C7C422 36-270 limits assumed): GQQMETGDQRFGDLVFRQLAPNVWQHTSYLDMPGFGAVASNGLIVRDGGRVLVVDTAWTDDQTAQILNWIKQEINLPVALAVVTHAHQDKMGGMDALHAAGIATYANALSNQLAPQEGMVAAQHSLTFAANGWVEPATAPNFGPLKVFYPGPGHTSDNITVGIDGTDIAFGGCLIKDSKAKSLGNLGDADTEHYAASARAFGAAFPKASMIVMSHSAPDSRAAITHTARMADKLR

Point of comparison: CC(=O)N1CCc2cc(Br)cc(S(=O)(=O)NCc3ccccc3)c21, inhibition at 5 µM 27.3%. Against it:
- CC(=O)N1CCc2cc(Br)cc(S(=O)(=O)NCCC(C)C)c21 — higher, 62.7%
- CCNS(=O)(=O)c1cc(Br)cc2c1N(C(C)=O)CC2 — lower, 16.8%
